The values below come from PubChem BioAssay (NCI).

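Protocol summary: plate cells (96-well), add compound at 5 concentrations, incubate 48 h, interpolate endpoints linearly. Abbreviation: GI50, concentration required for 50% inhibition of growth. The concentration for full growth arrest is given as TGI.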

Common to all, as to assay: NCI anticancer screen, dose series, 48 h
For test [1], the system named is HCT-116 colon.
The subject of test [2] is K-562 leukemia.
The subject of test [3] is MALME-3M melanoma.
In test [4] the test system is MCF7 breast.
The test system of test [5] is NCI-H23 lung.
The subject of test [6] is OVCAR-3 ovarian.
Test [7] relates to PC-3 prostate.
Test [8] concerns SF-539 CNS.
In test [9] the test system is SNB-75 CNS.
Test [10] relates to TK-10 renal.

As to `CCCCn1c(=O)c2c(nc3n2CCCN3CCc2ccc(OCC(=O)NCCN(CC)CC)cc2)n(CCCC)c1=O`, the GI50 in test [1] was 1.63 µM; in test [2] it was 1.31 µM; in [3], 0.922 µM; in [4] it was 1.95 µM; in test [5], 6.51 µM; in test [6], 4.7 µM. In addition, the GI50 is 1.19 µM in test [7], 1.87 µM in test [8], 1.93 µM in test [9] and 7.26 µM in [10]. For the same compound, the TGI in [1] amounted to 6.42 µM; in test [2], 4.39 µM; in test [3], 1.98 µM; in test [4] it was 8.97 µM; in [5], 15.6 µM; in test [6] it was 11.2 µM. Also, the TGI in [7] worked out at 5.37 µM; in test [8], 7 µM; in [9] it was 10 µM; in [10], 14.6 µM.

For `CN(CCCCCl)P(=O)(OCCS(=O)(=O)CC(NC(=O)CCC(N)C(=O)O)C(=O)NC(C(=O)O)c1ccccc1)OCC1OC(n2cc(F)c(=O)[nH]c2=O)CC1O` (stereo not drawn), the GI50 is 0.161 µM in [1]; 1.81 µM in test [2]; 8.98 µM in [3]; less than 0.01 µM in [4]; 0.27 µM in [5]; 1.22 µM in [6]. The GI50 in test [7] is 0.882 µM; in test [8], less than 0.0105 µM; in [9], 14.5 µM; in test [10] it was 0.944 µM. The TGI in test [1] is 39.9 µM; in [2], greater than 100 µM; in test [3], greater than 72.2 µM; in [5], greater than 33.7 µM; in [6] it was greater than 84.4 µM; in [7], greater than 36.1 µM. The figures for the TGI in [8], in test [9] and in test [10] were 7.74 µM, greater than 100 µM and greater than 21.4 µM, respectively.

As for `CCN(Cc1ccc(Cl)s1)c1ccc(CO)c(Cl)c1`, the GI50 in test [1] is 0.0464 µM; in [2], 0.575 µM; in test [3], 10 µM; in test [4], 0.119 µM; in test [5] it was 3.2 µM; in test [6], 0.295 µM. In addition, the GI50 was 12.7 µM in [7], 13 µM in test [8], 2.18 µM in test [9] and 0.0452 µM in test [10]. Besides, the TGI in test [1] was 11.3 µM; in [2], greater than 53.9 µM; in test [3], 28.1 µM; in test [4], 12.3 µM; in [5] it was 42.1 µM; in [6], 1.21 µM. Moreover, the TGI in test [7] amounted to 49.4 µM; in test [8], 28.5 µM; in test [9], 21.6 µM; in test [10], 0.221 µM.

For `Cn1cc(-c2nonc2-c2cn(C)c3ccccc23)c2ccccc21`, the GI50 was 0.61 µM in test [1]; 0.342 µM in test [2]; 1.06 µM in [3]; 0.591 µM in test [4]; 1.98 µM in [5]; 0.402 µM in [6]. The GI50 is 1.42 µM in test [7], 0.559 µM in test [8], 0.176 µM in test [9] and 6.23 µM in test [10]. Besides, the TGI was greater than 100 µM in test [1]; greater than 100 µM in test [2]; greater than 100 µM in test [3]; greater than 100 µM in test [4]; greater than 100 µM in [5]; 3.42 µM in test [6]. The TGI in [7] is greater than 100 µM; in test [8] it was 2.19 µM; in test [9], 0.842 µM; in test [10] it was greater than 100 µM.

In the case of `CCn1c2ccccc2c2cc(/C=C(/C#N)C(N)=O)ccc21`, the GI50 is 3.71 µM in test [1]; 4.49 µM in [2]; greater than 75.2 µM in [3]; 0.857 µM in test [4]; 16.3 µM in test [5]; 3.43 µM in [6]. Also, the GI50 in test [7] is 21.6 µM; in [9] it was 16.1 µM; in [10], 2.31 µM. Besides, the TGI is greater than 52.4 µM in test [1]; greater than 100 µM in test [2]; greater than 100 µM in [3]; greater than 47.3 µM in test [4]; greater than 100 µM in [5]; 19.1 µM in test [6]. Besides, the TGI in test [7] is greater than 100 µM; in test [8], 6.61 µM; in [9], 44.1 µM; in test [10], greater than 28.8 µM.

Regarding `CCOc1nc(N)nc(C)c1N=Nc1ccc(Cl)cc1`, the TGI in [1], in [2], in test [3], in test [4], in [5] and in [6] was greater than 100 µM throughout. In addition, the TGI in test [7], in [8], in test [9] and in test [10] was greater than 100 µM throughout.

For the compound `COc1cc2c(c(OC)c1OC)-c1ccc(SC)c(=O)cc1[C@@H](NC1OC(CO)C(O)C(O)C1O)CC2` (stereo partly drawn), the GI50 in test [1] was 0.0314 µM; in test [2], 0.0227 µM; in [3], 44.8 µM; in [4] it was 0.0215 µM; in test [5], 0.0568 µM; in [6], 0.0244 µM. Also, the GI50 in test [7] is 0.0347 µM; in test [8], 0.0243 µM; in [9], 0.0439 µM; in [10], 0.0478 µM. Besides, the TGI is greater than 100 µM in test [1]; greater than 100 µM in [2]; greater than 100 µM in test [3]; greater than 100 µM in test [4]; greater than 100 µM in [5]; 0.0762 µM in [6]. Further, the TGI in test [7] was greater than 100 µM; in test [8], 0.0703 µM; in test [9], greater than 100 µM; in [10], 31.2 µM.

`CCN1C(=O)N(CC)C2C1NN=c1s/c(=C3\C(=O)N(CCc4ccccc4)c4ccccc43)c(=O)n12` (stereo not drawn): the GI50 in [1] is 0.347 µM; in test [2], 0.353 µM; in [3], 1.04 µM; in test [4], 0.353 µM; in test [5], 0.794 µM; in [6], 0.291 µM. Also, the GI50 in [7] is 0.415 µM; in test [8], 0.228 µM; in test [9], 0.289 µM; in [10] it was 4.22 µM. In addition, the TGI was 1.4 µM in test [1]; greater than 100 µM in test [2]; 20 µM in test [3]; greater than 67.7 µM in [4]; 14.3 µM in test [5]; 0.901 µM in test [6]. Further, the TGI in test [7] is greater than 21.8 µM; in test [8], 0.643 µM; in test [9], 2.09 µM; in test [10] it was 29.2 µM.
